Reference: PMC10518255, “A first-in-class pan-lysyl oxidase inhibitor impairs stromal remodeling and enhances gemcitabine response and survival in pancreatic cancer” (Nature Cancer, 2023)
“And” between values parts separate entries of the source, which are not always exact repeats. Equal values may be shown once.

What was measured:
[1] = tested on: Lysyl oxidase family activity in aorta; assay: Lysyl oxidase family activity in aorta of KPC tumor bearing mice at end point, fluorometric activity assay; assay type: in vivo, mouse; conditions: for Lysyl oxidase family activity measured in the aorta of KPC tumour bearing mice at endpoint (signal over noise): Extended Data 5A, fluorometric activity assay, noise measured with 300 µM ßAPN, individual animals
Experimental: KPC mice were treated from the time at which palpable tumors were detected (typically 10 to 12 weeks of age) and continued until the study end point. Mice were treated daily with PXS-5505 (20 mg kg^−1 i.p.) or vehicle (0.9% saline) and twice weekly with gemcitabine (100 mg kg^−1 i.p.) or vehicle (0.9% saline).
Extended Data Fig. 5 PXS-5505 in combination with gemcitabine in vivo. a. […] Signal is defined as the enzyme activity in the aorta, while noise is measured in the presence of a high concentration (300 µM) BAPN to abolish any lysyl oxidase family activity. […] Data presented as mean values +/− SD b. […] Data presented as mean values +/− SD. c. FITC-dextran (molecular weight: 10 kDa) signal quantification from KPC tumor end point from each treatment group (vehicle n = 3 biologically independent animals, PXS-5505 n = 5 biologically independent animals, Gem n = 5 biologically independent animals, PXS-5505 + Gem n = 5 biologically independent animals). 4 ROIs taken per mouse. P-values determined by Welchs t-test. Data presented as mean values +/− SD. Scale bars = 100 μm d. Quantification of red birefringent (mature) collagen fibers from human PDXs at end point after 3 cycles of treatment, treated as indicated. […] Data presented as mean values +/− SD. Scale bars = 100 μm e. Quantification of bulk modulus (stiffness) by unconfined compression testing of end point human PDX tumors from each treatment group (vehicle n = 5 biologically independent animals, Gem n = 5 biologically independent animals, PXS-5505 n = 5 biologically independent animals, PXS-5505 + Gem n = 5 biologically independent animals) [individual tumors shown]). […] FITC-dextran (molecular weight 10 kDa) signal quantification from human PDXs from each treatment group (vehicle n = 4 biologically independent animals, PXS-5505 n = 5 biologically independent animals, Gem n = 5 biologically independent animals, PXS-5505 + Gem n = 5 biologically independent animals). […] P values determined by Welchs t-test. g. […] Quantification of green birefringent (nascent) collagen fibers from human PDXs at end point, treated as indicated. […]

[2] = tested on: KPC PDAC tumors; assay: Tumor weight at end point, KPC survival study; assay type: in vivo, mouse; conditions: Extended Data 5B; KPC tumours; individual animals
Excerpt: Treatment of KPC mice with gemcitabine led to a slowing of primary tumor progression, increasing survival from a median survival of 85 days in untreated mice to 125 days in gemcitabine-treated mice (P = 0.0005) (Fig. 4b,c, blue versus red). PXS-5505 as a monotherapy led to no changes in median survival compared to vehicle (85 versus 81 days) (Fig. 4c, blue versus green).
Extended Data Fig. 5 PXS-5505 in combination with gemcitabine in vivo. a. […] Signal is defined as the enzyme activity in the aorta, while noise is measured in the presence of a high concentration (300 µM) BAPN to abolish any lysyl oxidase family activity. […] Data presented as mean values +/− SD b. […] Data presented as mean values +/− SD. c. FITC-dextran (molecular weight: 10 kDa) signal quantification from KPC tumor end point from each treatment group (vehicle n = 3 biologically independent animals, PXS-5505 n = 5 biologically independent animals, Gem n = 5 biologically independent animals, PXS-5505 + Gem n = 5 biologically independent animals). 4 ROIs taken per mouse. P-values determined by Welchs t-test. […] Quantification of red birefringent (mature) collagen fibers from human PDXs at end point after 3 cycles of treatment, treated as indicated. […] P values determined by Welchs t-test. g. […] Quantification of green birefringent (nascent) collagen fibers from human PDXs at end point, treated as indicated. […]

SMILES	Lysyl oxidase family activity measured in the aorta of KPC tumour bearing mice at endpoint (signal over noise) [1]	Tumour weight at endpoint [2]	lysyl oxidase family activity in the aorta at end point ([1]; KPC tumor bearing mice)
Nc1ccn([C@@H]2O[C@H](CO)[C@@H](O)C2(F)F)c(=O)n1 [Gem, gemcitabine]	2.059 and 2.616 and 2.089 and 2.043 and 2.04 and 2.065 and 2.364	0.28 grams and 0.51 grams and 0.6 grams and 0.69 grams and 0.41 grams and 0.462 grams and 0.3 grams and 0.26 grams and 0.37 grams and 1.42 grams and 0.75 grams and 0.63 grams and 1.2 grams and 0.7 grams and 0.4 grams	–
Cl.Cl.NC/C=C(\F)CS(=O)(=O)c1cccc2cccnc12.O [PXS-5505, (Z)-3-fluoro-4-(quinolin-8-ylsulfonyl)but-2-en-1-amine dihydrochloride monohydrate]	1.144 and 1.3025 and 1.519 and 1.787 and 1.62 and 1.558	0.55 grams and 0.54 grams and 0.19 grams and 0.83 grams and 0.33 grams and 1.18 grams and 0.43 grams and 0.96 grams and 1.94 grams and 0.78 grams and 1.16 grams and 1.34 grams and 0.68 grams and 0.3 grams and 1.3 grams and 0.5 grams and 0.8 grams	confirming lysyl oxidase family inhibition
